“Also recorded” adds a separate entry of the source. Like-named read-outs stand apart in the source and are kept apart here.
Tests used:
[1] = molecular target: BRD4 (Homo sapiens, UniProt O60885); assay: Live cell kinetic HiBiT degradation assay, HiBiT-BRD4 HEK293 cells (parental, CRBN KO, VHL KO); type: cell-based
Summary of the method: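 Endogenous N-terminal HiBiT-BRD4 HEK293 cells stably expressing LgBiT (parental, CRBN KO, VHL KO) in CO2-independent medium with Endurazine, pre-equilibrated 3 h at 37 °C. Luminescence read every 7 min for 24 h after PROTAC addition (threefold series), normalized to pre-read and DMSO. Dmax = lowest reading; rate from one-phase decay; Dmax50 from Dmax-vs-concentration fit.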

[2] = system: RKO WT cells; assay: cells; type: cell-based, human; conditions: Homo sapiens

## Cc1ncsc1-c1ccc(CNC(=O)[C@@H]2C[C@@H](O)CN2C(=O)[C@@H](NC(=O)COCC(C)(COCCOCCOCCNc2cccc3c2C(=O)N(C2CCC(=O)NC2=O)C3=O)COCCOCCOC(=O)C[C@@H]2N=C(c3ccc(Cl)cc3)c3c(sc(C)c3C)-n3c(C)nnc32)C(C)(C)C)cc1 (mixture of isomers) [AB3064 (25), (14S)-8-((2-(2-(2-((2-(2,6-dioxopiperidin-3-yl)-1,3-dioxoisoindolin-4-yl)amino)ethoxy)ethoxy)ethoxy)methyl)-14-((2S,4R)-4-hydroxy-2-((4-(4-methylthiazol-5-yl)benzyl)carbamoyl)pyrrolidine-1-carbonyl)-8,15,15-trimethyl-12-oxo-3,6,10-trioxa-13-azahexadecyl 2-((S)-4-(4-chlorophenyl)-2,3,9-trimethyl-6H-thieno[3,2-f][1,2,4]triazolo[4,3-a][1,4]diazepin-6-yl)acetate]
[1]; HiBiT-BRD4 CRISPR knock-in HEK293 cells, live cell kinetic degradation, 24 h, read-out: Dmax 50 BRD4
  EC50: 31 nM
[1]; HiBiT-BRD4 knock-in HEK293 cells
  λmax BRD4 (degradation rate): 1.09 h⁻¹
[2]; WT RKO, 316 pM to 10 μM, n = 3 (Table S4), read-out: EC50 RKO
  EC50: 904 nM

## Cc1ncsc1-c1ccc([C@H](C)NC(=O)[C@@H]2C[C@H](O)CN2C(=O)[C@@H](NC(=O)COCC(C)(COCCOCCOCCNc2cc3c(cc2F)C(=O)N(C2CCC(=O)NC2=O)C3=O)COCCOCCOCCOC(=O)C[C@@H]2N=C(c3ccc(Cl)cc3)c3c(sc(C)c3C)-n3c(C)nnc32)C(C)(C)C)cc1 (mixture of isomers) [cis-AB3067 (94), (17S)-11-((2-(2-(2-((2-(2,6-dioxopiperidin-3-yl)-6-fluoro-1,3-dioxoisoindolin-5-yl)amino)ethoxy)ethoxy)ethoxy)methyl)-17-((2S,4S)-4-hydroxy-2-(((S)-1-(4-(4-methylthiazol-5-yl)phenyl)ethyl)carbamoyl)pyrrolidine-1-carbonyl)-11,18,18-trimethyl-15-oxo-3,6,9,13-tetraoxa-16-azanonadecyl 2-((S)-4-(4-chlorophenyl)-2,3,9-trimethyl-6H-thieno[3,2-f][1,2,4]triazolo[4,3-a][1,4]diazepin-6-yl)acetate]
[1]; parental, CRBN KO and VHL KO HiBiT-BRD4 HEK293 cells (Figure S5), listed as 94
  on-target BRD4 degradation activity (in words): inactive in CRBN KO cells; also recorded: increase in degradation potency relative to 27 in both parental and VHL KO cells
[2]; 72 h, 500 pM to 10 μM, 3 days (Figure 10, Table S6), read-out: EC50 RKO WT
  EC50: 48 nM
